Test results reported in US20160237450A1, “METHOD FOR ENHANCING DROUGHT TOLERANCE IN PLANTS” (Plant Response Biotech S.L., priority 2015, published 2016).

System: strawberry plants ('Sabrina', 'Candonga', 'Fortuna')
Test: Strawberry fruit production without drought stress (trade-off)
Type: in vivo
Details: no drought stress; for Strawberry fruit production, % Control (2013) / Strawberry fruit production, % Control (2014): 1 g/l spray every 4 weeks for 3 months
Procedure: In order to determine the plant yield productivity under normal conditions, ‘Sabrina’, ‘Candonga’ and ‘Fortuna’ strawberry varieties, leek, lettuce, “Iceberg” variety, broccoli “Parthenon” variety, celery or kohlrabi plants, were grown under standard production conditions and 120 plants of each variety per treatment (where the treatment was a control comprising standard watering or 1 g/L of TMAO di-hydrate spray every four weeks) were analyzed. Plants were located in four (4) different positions for each group of 30 plants from the same treatment. Fruits, leaves or roots were harvested from individual plants and total weight was determined for each plant.
Fruit yield was determined in ‘Sabrina’, ‘Candonga’ and ‘Fortuna’ strawberry plants treated with 1 g/l of TMAO di-hydrate or water as described above in order to evaluate the trade-off costs of the treatment with no drought stress.

Q: Which results are given for C[N+](C)(C)[O-].O.O [TMAO di-hydrate, trimethylamine N-oxide di-hydrate]?
A: difference in fruit production versus water-treated plants (1 g/l): no significant difference; Strawberry fruit production, % Control (2013) (Candonga): 102%; Strawberry fruit production, % Control (2014) (Candonga): 106%; Strawberry fruit production, % Control (2013) (Fortuna): 101%; Strawberry fruit production, % Control (2014) (Fortuna): 105%; Strawberry fruit production, % Control (2013) (Sabrina): 106%; Strawberry fruit production, % Control (2014) (Sabrina): 115%; Strawberry fruit production, % Control (2013) (Total of varieties): 105%; Strawberry fruit production, % Control (2014) (Total of varieties): 111%
